Results published in patent US11452731B2, “Method of treating and preventing loss of cognition” (ENDORECHERCHE, INC., priority 2009, dated 2022).
Values joined by “and” are separate entries in the source; they are usually repeats but may differ in a detail not shown here. Identical values can stand only once. Marks after values point to notes of the source that are not given here.

Legend:
[1] = set-up: species or system Long-Evans rats; settings: rat, in vivo
Source text: For comparison purposes, values for the blood, plasma, liver (Table 13) and uterus from each of these animals were included.

[2] = 12-month treatment of ovariectomized rats with DHEA alone or with Flutamide or EM-800: bone histomorphometry, bone markers, serum lipids; assay type: in vivo, rat; settings: added to DHEA, OVX rats, 12 months
[3] = system: ZR-75-1 human breast cancer xenografts; assay: Growth and response of human ZR-75-1 breast tumor xenografts in estrone-supplemented OVX nude mice, DHEA and/or EM-800 for 9.5 months (Example 1); assay type: in vivo; settings: 9.5 months; for Category of response: Complete (%) / Category of response: Complete (Number) / Category of response: Partial (%) / Category of response: Partial (Number) / Category of response: Progression (%) / Category of response: Progression (Number) / Category of response: Stable (%) / Category of response: Stable (Number) / Average tumor weight at end of experiment: E1-supplemented
[4] = 9-month treatment with DHEA and/or EM-800 in the rat: urinary and serum markers of bone metabolism; assay type: in vivo
Source text: It is particularly important to indicate that the combination of DHEA and EM-800 exerted unexpected beneficial effects on important biochemical parameters of bone metabolism. […] Moreover, no effect of DHEA could be detected on daily urinary calcium or phosphorus excretion (Luo et al., 1997). EM-800 decreased the urinary hydroxyproline/creatinine ratio by 48% while, similarly to DHEA, no effect of EM-800 was seen on urinary calcium or phosphorus excretion. EM-800, moreover, had no effect on serum alkaline phosphatase activity, a marker of bone formation while DHEA increased the value of the parameter by about 75% (Luo et al., 1997).

[5] = 12-week oral EM-800 (0.5 mg/kg) in intact rats: serum 17β-estradiol, mammary gland and endometrium histology; assay type: in vivo, rat; settings: 12 weeks
Description: The lobules (L) consist of a few alveoli. Insert. High magnification showing alveoli. • b) Animal treated with EM-800 (0.5 mg/kg, b w per day) for 12 weeks. […] Insert. High magnification showing atrophied alveolar cells.
The luminal epithelium (LE) is characterized by columnar epithelial cells while the glandular epithelium (GE) is rather cuboidal. The stroma contains several cellular elements and collagen fibers. • b) Animal treated with EM-800 (0.5 mg/kg, b w per day) during 12 weeks. […] The glandular epithelial cells have unstained cytophasm with no sign of activity. The stroma is highly cellular due to reduction in intercellular elements of the stroma.

[6] = Uterine, vaginal and body weight in estrone-supplemented OVX nude mice (Example 1); assay type: in vivo; settings: E1-supplemented
Description: DHEA was dissolved in 50% ethanol 50% propylene glycol. […] Tumors were measured once a week with Vernier calipers.

[7] = system: ZR-75-1 human breast cancer xenografts; assay: Tamoxifen and EM-652.HCl alone or combined on growth of ZR-75-1 xenografts in nude mice (FIG. 7); assay type: in vivo; settings: ZR-75-1 xenografts in nude mice
[8] = Endometrial epithelium thickness in OVX nude mice after 161 days of antiestrogen (Example 8); assay type: in vivo
Source text: The 17 groups included two control groups (OVX and OVX+Estrone), seven groups supplemented with an estrone implant and treated with an antiestrogen and eight other groups that received an antiestrogen alone. The estrone implants were then removed from the animals in the ovariectomized control group (OVX) and in groups that were to receive the antiestrogen alone. […] Tamoxifen was purchased from […]) while toremifene citrate was purchased from Orion (Espoo, Finland). […] The antiestrogen suspensions at the appropriate concentration were prepared each month, stored at 4° C. and used under constant agitation. Powder stock were hermetically stored at 4° C. […] After 161 days of treatment, the remaining animals were anesthetized with isoflurane and killed by exsanguination. […] The uteri were prepared to evaluate endometrial thickness by image analysis performed with Image Pro-Plus (Media Cybernetics, Maryland, USA). […] Hematoxylin- and eosin-stained sections of mice uteri were analyzed. […] Mean epithelial cell height was measured in all animals of each group.

[9] = system: ZR-75-1 human breast cancer xenografts; assay: Growth and response of human ZR-75-1 breast tumors in OVX nude mice, 7 antiestrogens for 161 days with or without estrone (Example 8); assay type: in vivo
Description: ZR-75-1 human breast cancer cells were obtained from the American Type Culture Collection (Rockville, Md.) and cultured in phenol red-free RPMI-1640 medium. […] (Saint-Constant, Québec, Canada). The mice (5 per cage) were housed in vinyl cages equipped with air filter lids, which were kept in laminar airflow hoods and maintained under pathogen-limiting conditions. The photoperiod was 12 hours of light and 12 hours of darkness (lights on at 07:15). Cages, bedding and food (Agway Pro-Lab R-M-H Diet #4018) were autoclaved before use. Water was autoclaved and provided ad libitum. Bilateral ovariectomy was performed under isoflurane-induced anesthesia. […] Randomization and treatments were started one week later. […] The estrone implants were then removed from the animals in the ovariectomized control group (OVX) and in groups that were to receive the antiestrogen alone. […] Tamoxifen was purchased from […]) while toremifene citrate was purchased from Orion (Espoo, Finland). […] The antiestrogen suspensions at the appropriate concentration were prepared each month, stored at 4° C. and used under constant agitation. Powder stock were hermetically stored at 4° C. […] Two perpendicular diameters were recorded and tumor area (mm2) was calculated using the formula: […] Tumor response was assessed at the end of the study or at death of each animal, if it occurred during the course of the experiment. In this case, only data of mice that survived for at least half of the study ([…]) were used in the tumor response analysis.

[10] = DHEA 0.3 mg, EM-800 15 μg, or EM-800 15 μg + DHEA 0.3 mg
[11] = DHEA 1.0 mg, EM-800 50 μg, or EM-800 15 μg + DHEA 1.0 mg
[12] = DHEA 3.0 mg, EM-800 100 μg, or EM-800 15 μg + DHEA 3.0 mg
[13] = DHEA 10 mg, EM-800 75 μg, alone or combined
[14] = EM-800 15 μg, or EM-800 15 μg + DHEA 0.3 mg
[15] = EM-800 50 μg, or EM-800 15 μg + DHEA 1.0 mg
[16] = EM-800 100 μg, or EM-800 15 μg + DHEA 3.0 mg
[17] = absence of estrone, 200 μg daily, 161 days
[18] = estrone-supplemented, 50 μg daily, 161 days

Question: With `CC1=C(c2ccc(O)cc2)[C@H](c2ccc(OCCN3CCCCC3)cc2)Oc2cc(O)ccc21` [EM-652] as the molecule, how does the “accessibility to the CNS” value [1] read?
Answer: very poor accessibility

Question: For `CC1=C(c2ccc(OC(=O)C(C)(C)C)cc2)[C@H](c2ccc(OCCN3CCCCC3)cc2)Oc2cc(OC(=O)C(C)(C)C)ccc21` [EM-800, (+)-7-pivaloyloxy-3-(4′-pivaloyloxyphenyl)-4-methyl-2-(4″-(2′″-piperidi-noethoxy)phenyl)-2H-benzopyran], which “reversal of the stimulatory effect of DHEA on serum alkaline phosphatase” value [2] is on record?
Answer: no significant effect

Question: What about the “Inhibition of estrone-stimulated ZR-75-1 tumor size” value ([3]; daily DHEA 0.3 mg or EM-800 15 μg) of the same molecule?
Answer: 88% and 87.5%

Question: What about the “Inhibition of estrone-stimulated ZR-75-1 tumor size” value ([3]; daily DHEA 1.0 mg or EM-800 50 μg) of the same molecule?
Answer: 93% and 93.5%

Question: What about the “Inhibition of estrone-stimulated ZR-75-1 tumor size” value ([3]; daily DHEA 3.0 mg or EM-800 100 μg) of the same molecule?
Answer: 94%

Question: And the “Category of response: Complete (%)” value [3, 10]?
Answer: 29.4%

Question: And the “Category of response: Complete (Number)” value [3, 10]?
Answer: 5

Question: What about the “Category of response: Partial (%)” value [3, 10] of the same molecule?
Answer: 5.9%

Question: What about the “Category of response: Partial (Number)” value [3, 10] of the same molecule?
Answer: 1

Question: And the “Category of response: Progression (%)” value [3, 10]?
Answer: 35.3%

Question: What about the “Category of response: Progression (Number)” value [3, 10] of the same molecule?
Answer: 6

Question: What about the “Category of response: Stable (%)” value [3, 10] of the same molecule?
Answer: 29.4%

Question: And the “Category of response: Stable (Number)” value [3, 10]?
Answer: 5

Question: What about the “Category of response: Complete (%)” value [3, 11] of the same molecule?
Answer: 25.0%

Question: And the “Category of response: Complete (Number)” value [3, 11]?
Answer: 4

Question: And the “Category of response: Partial (%)” value [3, 11]?
Answer: 18.8%

Question: And the “Category of response: Partial (Number)” value [3, 11]?
Answer: 3

Question: And the “Category of response: Progression (%)” value [3, 11]?
Answer: 25.0%

Question: What about the “Category of response: Progression (Number)” value [3, 11] of the same molecule?
Answer: 4

Question: What about the “Category of response: Stable (%)” value [3, 11] of the same molecule?
Answer: 31.2%

Question: And the “Category of response: Stable (Number)” value [3, 11]?
Answer: 5

Question: And the “Category of response: Complete (%)” value [3, 12]?
Answer: 50.0%

Question: And the “Category of response: Complete (Number)” value [3, 12]?
Answer: 8

Question: What about the “Category of response: Partial (%)” value [3, 12] of the same molecule?
Answer: 0 (0) %

Question: And the “Category of response: Partial (Number)” value [3, 12]?
Answer: 0 (0)

Question: And the “Category of response: Progression (%)” value [3, 12]?
Answer: 31.2%

Question: What about the “Category of response: Progression (Number)” value [3, 12] of the same molecule?
Answer: 5

Question: What about the “Category of response: Stable (%)” value [3, 12] of the same molecule?
Answer: 18.8%

Question: And the “Category of response: Stable (Number)” value [3, 12]?
Answer: 3

Question: And the “Average tumor weight at end of experiment” value (“Average tumor weight at end” below) ([3]; daily DHEA 0.3 mg, EM-800 15 μg, or EM-800 15 μg + DHEA 0.3 mg)?
Answer: 0.08 ± 0.03 g

Question: And the “Average tumor weight at end” value ([3]; daily DHEA 1.0 mg, EM-800 50 μg, or EM-800 15 μg + DHEA 1.0 mg)?
Answer: 0.03 ± 0.01 g

Question: What about the “Average tumor weight at end” value ([3]; daily DHEA 3.0 mg, EM-800 100 μg, or EM-800 15 μg + DHEA 3.0 mg) of the same molecule?
Answer: 0.04 ± 0.03 g

Question: What about the “decrease of urinary hydroxyproline/creatinine ratio (marker of bone resorption)” value [4] of the same molecule?
Answer: 48%

Question: What about the “effect on daily urinary calcium or phosphorus excretion” value [4] of the same molecule?
Answer: no effect

Question: What about the “increase of serum alkaline phosphatase activity (marker of bone formation)” value [4] of the same molecule?
Answer: no effect

Question: What about the “Serum tALP” value [4, 13] of the same molecule?
Answer: 114.11 ± 11.26 IU/L

Question: What about the “Urine HP/Cr” value [4, 13] of the same molecule?
Answer: 6.81 ± 0.84 μmol/mmol

Question: And the Urine calcium [4, 13]?
Answer: 17.44 ± 4.5 μmol/24 h/100 g

Question: And the Urine phosphorus [4, 13]?
Answer: 102.03 ± 25.13 μmol/24 h/100 g

Question: What about the “elevation of circulating 17β-estradiol versus intact animals” value ([5]; EM-800 0.5 mg/kg orally daily) of the same molecule?
Answer: 50%

Question: What about the “effect on the endometrium (histology)” value ([5]; EM-800 0.5 mg/kg) of the same molecule?
Answer: marked atrophy

Question: And the “effect on the mammary gland (histology)” value ([5]; EM-800 0.5 mg/kg)?
Answer: marked atrophy

Question: What about the “circulating levels of 17β-estradiol” value ([5]; intact rats, EM-800 0.5 mg/kg orally daily) of the same molecule?
Answer: 143.5 ± 7.8 pg/mL

Question: What about the UTERINE WEIGHT [6, 14] of the same molecule?
Answer: 49 ± 3 mg

Question: And the VAGINAL WEIGHT [6, 14]?
Answer: 23 ± 1 mg

Question: And the UTERINE WEIGHT [6, 15]?
Answer: 36 ± 2 mg

Question: What about the VAGINAL WEIGHT [6, 15] of the same molecule?
Answer: 15 ± 1 mg

Question: And the UTERINE WEIGHT [6, 16]?
Answer: 32 ± 1 mg

Question: What about the VAGINAL WEIGHT [6, 16] of the same molecule?
Answer: 11 ± 1 mg

Question: For `CC/C(=C(\c1ccccc1)c1ccc(OCCN(C)C)cc1)c1ccccc1` [Tamoxifen, (Z)-2-[4-(1,2-diphenyl-1-butenyl)phenoxy]-N,N-dimethylethanamine], which “stimulatory effect on tumor growth” value [7] is on record?
Answer: approximately 100%

Question: What about the “inhibition of the stimulatory effect of estrone on epithelial height” value ([8]; 50 μg daily oral, estrone stimulation) of the same molecule?
Answer: 32%

Question: What about the “height of uterine epithelial cells, % of the OVX control group value” ([8]; 200 μg daily, absence of estrone) of the same molecule?
Answer: 155%

Question: And the “ENDOMETRIAL EPITHELIUM THICKNESS (μm) ± SEM” value ([8]; OVX + E1, antiestrogen 50 μg daily)?
Answer: 33.44^b,d ± 0.04 μm

Question: And the “ENDOMETRIAL EPITHELIUM THICKNESS (μm) ± SEM” value ([8]; OVX without E1, antiestrogen 200 μg daily)?
Answer: 28.47^b,d ± 0.05 μm

Question: What about the “increase of average tumor size over baseline (agonistic effect)” value [9, 17] of the same molecule?
Answer: 196%

Question: And the “tumors in the progression category, %” value [9, 17]?
Answer: 62%

Question: And the “tumors in the progression category, number of total” value [9, 17]?
Answer: 16 of 26

Question: What about the “average tumor size above pretreatment values” ([9]; estrone-stimulated, 50 μg oral daily, 23 weeks) of the same molecule?
Answer: 87%

Question: What about the “progressing tumors, % of tumors” value [9, 18] of the same molecule?
Answer: 65%

Question: What about the “progressing tumors, number of total” value [9, 18] of the same molecule?
Answer: 17 of 26
